Results: ChEMBL document CHEMBL1201862, “PubChem BioAssay data set” (2004)
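Following 48 hours of exposure in 96-well plates, responses at five concentrations were used to interpolate endpoints linearly. GI50 = concentration required for 50% inhibition of growth.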 Calls of active or inactive are those of the source. Rule as the data show it: active = GI50 up to about 1.1 µM and inactive = higher.

Assays:
Assay in all cases: inhibition of tumour cell growth, NCI panel, 48 h
[1] = system: A549
[2] = system: BT-549
[3] = system: CCRF-CEM
[4] = system: EKVX
[5] = system: HCC 2998
[6] = system: HCT-116
[7] = system: HCT-15
[8] = system: HL-60
[9] = system: MCF7
[10] = system: MDA-MB-435
[11] = system: Malme-3M
[12] = system: NCI/ADR-RES
[13] = system: OVCAR-8
[14] = system: RPMI-8226
[15] = system: SF-539
[16] = system: SK-MEL-28
[17] = system: SK-MEL-2
[18] = system: SW-620
[19] = system: SK-OV-3

Cc1cc(=O)oc2c(CN(CCCl)CCCl)c(O)ccc12
GI50 [1]: 27.5 µM (inactive) | GI50 [2]: 21.1 µM (inactive) | GI50 [3]: 2.47 µM (inactive) | GI50 [4]: > 100 µM (inactive) | GI50 [5]: 28.4 µM (inactive) | GI50 [6]: 27.8 µM (inactive) | GI50 [7]: 56.9 µM | GI50 [8]: 4.3 µM (inactive) | GI50 [9]: 11.4 µM (inactive) | GI50 [10]: 57.3 µM (inactive) | GI50 [11]: 34.1 µM (inactive) | GI50 [12]: 71.9 µM (inactive) | GI50 [13]: 54.6 µM (inactive) | GI50 [14]: 19.1 µM (inactive) | GI50 [15]: 20.6 µM (inactive) | GI50 [16]: 65.5 µM (inactive) | GI50 [17]: > 100 µM (inactive) | GI50 [18]: 14 µM (inactive)

CSCCCNC(=O)c1csc(-c2csc(CCNC(=O)CNC(=O)CNC(=O)CNC(=O)OC(C)(C)C)n2)n1
GI50 [1]: > 100 µM (inactive) | GI50 [2]: > 100 µM (inactive) | GI50 [3]: > 100 µM (inactive) | GI50 [4]: > 100 µM (inactive) | GI50 [5]: > 100 µM (inactive) | GI50 [6]: > 100 µM (inactive) | GI50 [7]: > 100 µM | GI50 [9]: > 100 µM (inactive) | GI50 [10]: > 100 µM (inactive) | GI50 [11]: > 100 µM (inactive) | GI50 [12]: > 100 µM (inactive) | GI50 [13]: > 100 µM (inactive) | GI50 [15]: > 100 µM (inactive) | GI50 [16]: > 100 µM (inactive) | GI50 [17]: > 100 µM (inactive) | GI50 [19]: > 100 µM (inactive) | GI50 [18]: > 100 µM (inactive)

CO[C@@H]1C=C[C@@]23c4cc5c(cc4C(O)N(CC2O)C3C1)OCO5 (stereo partly specified)
GI50 [1]: 3.35 µM (inactive) | GI50 [2]: 2.98 µM (inactive) | GI50 [3]: 1.79 µM (inactive) | GI50 [4]: 3.86 µM (inactive) | GI50 [6]: 2.97 µM (inactive) | GI50 [7]: 3.8 µM | GI50 [8]: 1.8 µM (inactive) | GI50 [9]: 1.98 µM (inactive) | GI50 [10]: 3.06 µM (inactive) | GI50 [11]: 6.97 µM (inactive) | GI50 [12]: 13.9 µM (inactive) | GI50 [13]: 3.63 µM (inactive) | GI50 [14]: 4.18 µM (inactive) | GI50 [15]: 9.23 µM (inactive) | GI50 [16]: 5.04 µM (inactive) | GI50 [17]: 2.99 µM (inactive) | GI50 [19]: 3.66 µM (inactive) | GI50 [18]: 4.33 µM (inactive)

CCOC(=O)CCC(NC(=O)c1ccc(Oc2nc3c(N)cc(C(F)(F)F)cc3nc2-c2ccccc2)cc1)C(=O)OCC (stereo unspecified)
GI50 [1]: 7.78 µM (inactive) | GI50 [2]: > 50.6 µM (inactive) | GI50 [3]: > 100 µM (inactive) | GI50 [4]: 47.1 µM (inactive) | GI50 [5]: 67.8 µM (inactive) | GI50 [6]: 2.14 µM (inactive) | GI50 [7]: > 100 µM | GI50 [8]: 38.8 µM (inactive) | GI50 [9]: 37.1 µM (inactive) | GI50 [10]: 59.8 µM (inactive) | GI50 [11]: 12.4 µM (inactive) | GI50 [12]: 1.34 µM (inactive) | GI50 [13]: 1.09 µM (active) | GI50 [14]: > 45.9 µM (inactive) | GI50 [15]: 1.67 µM (inactive) | GI50 [16]: > 100 µM (inactive) | GI50 [19]: 13.5 µM (inactive) | GI50 [18]: > 100 µM (inactive)
